How the values were obtained:
NFκB = experiment: NFκB-Luc reporter in HaCaT keratinocytes; assay type: cell-based, human; conditions: 100 nM
Experimental: HaCaT keratinocytes were transfected with NFκB-Luc construct using Lipofectamine Plus (Invitrogen, Carlsbad, Calif.) in DMEM medium with firefly luciferase reporter gene plasmid and with phRL-TK (expresses Renilla luciferase and serves as normalization control; Promega, Madison, Wis.). After transfection cells were incubated for 24 h in complete medium, and then after change to fresh media treated with drug or vehicle (ethanol) at the concentration of 10 nM for 30 minutes, 1 h, 4 h, 16 h and 24 h. The firefly luciferase and Renilla luciferase signals were recorded with a TD-20/20 luminometer (Turner Designs, Sunnyvale, Calif.); background luminescence was subtracted and the resulting promoter specific firefly signal was divided by the Renilla signal (proportional to the number of transfected cells). The values obtained were divided by the mean of control (untreated) cells.

[1] = system: PC3 human prostate cancer cells; experiment: Soft agar colony formation, PC3 prostate cancer; assay type: cell-based; conditions: PC3, dose dependent
Experimental: Growth and survival of prostate cancer cells (PC3) and melanoma cells SKMEL 188 and AbC1 was determined by following their ability to form colonies in soft agar. Cells growing in monolayer culture were trypsinized and resuspended (1,000 cells/well) in 0.25 ml medium containing 0.4% agarose and 5% charcoal stripped serum (HyClone).
Cell suspensions were added to 0.8% agar layer in 24 well plates. Compounds were added from ethanol stocks (100 μM) to final concentrations of 0.1 nM or 10 nM, in 100 μL media. Each condition was tested in quadruplicate. An ethanol solvent control (amount of ethanol equivalent to test) as well as a media-only control was included in the assay. Cells were allowed to grow at 37° with 5% CO2 over two weeks with secosteroids in fresh media (100 μL) being added after every 72 h. Soft agar colonies were scored and stained with 0.5 mg/ml MTT reagent (Promega), 500 μL/well after two weeks. Colonies were then counted under the microscope and number of units was calculated as number of colonies formed divided by the number of cells seeded×100.

[2] = system: human dermal fibroblast line; experiment: TGF-b1 induced hyaluronan synthesis by dermal fibroblasts; assay type: cell-based
Excerpt: There were found no significant differences in fibroblast numbers per well and no significant differences in trypan blue exclusion between control wells vs those with secosteroids range 95-100% (data not shown).

CYP24 = experiment: Real-time RT PCR CYP24 mRNA, normal epidermal keratinocytes; assay type: cell-based, human
Experimental: RNA was extracted as above. Reverse transcription was performed with Transcriptor First Strand cDNA Synthesis Kit (Roche, Nutley, N.J.). The primers (right: 5′-GCA GCT CGA CTG GAG TGA C-3′ (SEQ ID NO: 1) and left: 5′-CATCATGGCCATCAAAACAAT-3′(SEQ ID NO: 2)) and probe (cat. no. 04689135001) were designed with Universal Probe Library (Roche, Nutley, N.J.). Real-time PCR was performed using TaqMan PCR Master Mix at 50° C. for 2 min, 95° C. for 10 min and then 50 cycles (95° C. for 15 sec, 60° C. for 1 min). The data was collected on a Roche Light Cycler 480. The amounts of CYP24 were normalized using cyclophilin D as a housekeeping gene with comparative CT method.

[3] = system: normal epidermal keratinocytes; experiment: Flow cytometry DNA content, normal epidermal keratinocytes; assay type: cell-based, human; conditions: 10 nM
HaCaT keratinocytes = experiment: Colony forming (clonogenicity) assay in HaCaT keratinocytes; assay type: cell-based, human; conditions: 10 days
Experimental: HaCaT and human adult epidermal keratinocytes were cultured and DNA synthesis experiments were performed as described previously (26). Cells were plated in 6-well plates at a density of 20 cells/cm^2 in DMEM (Cellgro, Herndon Va.) containing 5% charcoal-treated fetal bovine serum (Hyclone, Logan, Utah), 1% antibiotic solution (PSA, Sigma, St. Louis, […].) and vehicle or secosteroids. Cells were incubated in 37° C. for 10 days with media being changed every 72 hr. Cells were fixed with 4% paraformaldehyde in PBS overnight, stained with 0.5% crystal violet in PBS for 15 min, rinsed and air-dried. The number and size of the colonies were measured using an ARTEK counter 880 (Dynex Technologies Inc., Chantilly, Va.). Colony forming units were calculated as follows: number of colonies (size>0.5 mm) was divided by the number of cells plated and multiplied by 100.

involucrin = experiment: Real-time RT PCR involucrin mRNA, normal human epidermal keratinocytes; assay type: cell-based; conditions: 10^−8 M
Experimental: RNA was extracted using an Absolutely RNA RT-PCR Miniprep Kit (Stratagene, La Jolla, Calif.). Real time PCR and reverse transcription products were purchased from Applied Biosystems, Foster City, Calif. Reverse transcription was performed using Taqman® Reverse Transcription Reagents. The following PCR products were used: cytokeratin 14: Hs00265033_m1, involucrin: Hs00846307_s1, CYP27A1: Hs00168003_ml, CYP27B1: Hs00168017_ml, 18SrRNA: Hs99999901_s1. The reaction was performed with Taqman® Universal PCR Master Mix; data were collected on an ABI Prism 7700 and analyzed on Sequence Detector 1.9.1. Specific gene amounts were related to 18SrRNA by comparative CT method.

[4] = system: neonatal epidermal melanocytes; experiment: Proliferation of neonatal epidermal melanocytes; assay type: cell-based; conditions: 48 hours

C=C1CC[C@H](O)C/C1=C/C=C1\CCC[C@]2(C)[C@@H](C(C)(O)CC(O)CC(C)C)CC[C@@H]12 (stereo partly drawn) [20,23-dihydroxycholecalciferol, (5Z,7E)-9,10-secocholesta-5,7,10(19)-triene-3β,20,23-triol]
NFκB-Luc activity (NFκB): inhibition

C=C1CC[C@H](O)C/C1=C/C=C1\CCC[C@]2(C)[C@@H](C(C)=O)CC[C@@H]12 [pD3, (5Z,7E)-3β-hydroxy-9,10-secopregna-5,7,10(19)-trien-20-one]
colony formation on soft agar [1]: suppress colony formation on soft agar | Hyaluronan CPM/Well (mean ± SEM) × 10^−5 FB ([2]; hrTGF-b1 5 ng/ml, secosteroids at 10^−10M): 135 ± 25 CPM/Well × 10^−5 FB | NFκB-Luc activity (NFκB): inhibits NFκB-Luc activity

C=C1CC[C@H](O)C/C1=C/C=C1\CCC[C@@]2(C)[C@H]1CC[C@@H]2[C@@](C)(O)CCCC(C)C [20(OH)D3, (5Z,7E)-9,10-secocholesta-5,7,10(19)-triene-3β,20-diol]
increase of CYP24 mRNA levels (CYP24; 10 nM, 24 h): 1.3 fold | stimulation of CYP24 mRNA (CYP24; 10^−6, 24 h): ~247 fold | cells in G1/0 ([3]; 48 h): 52±5% | cells in G2/M ([3]; 48 h): 35±8% | cells in S phase ([3]; 48 h): 13±12% | inhibition of colony formation (HaCaT keratinocytes; 10^−7 M): 58% | inhibition of colony formation (HaCaT keratinocytes; 10^−8 M): 36% | stimulation of involucrin mRNA (involucrin; 6 h): 4.7 fold | stimulation of involucrin mRNA (involucrin; 24 h): 1.8 fold

C=C1/C(=C\C=C2/CCC[C@]3(C)[C@@H]([C@H](C)CCCC(C)(C)O)CC[C@@H]23)C[C@@H](O)C[C@@H]1O [1α,25-dihydroxycholecalciferol, (5Z,7E)-9,10-secocholesta-5,7,10(19)-triene-1α,3β,25-triol, reference compound]
cells in G1/0 ([3]; 24 h): 52±2% | cells in G2/M ([3]; 24 h): 35±5% | cells in S phase ([3]; 24 h): 13±7% | inhibition at 0.01 µM (HaCaT keratinocytes; Homo sapiens, HaCaT, 240 h, 10^−8 M, read-out: inhibition of colony formation): 64% | TGF-b1 induced hyaluronan synthesis ([2]; 10^−10 M): inhibited TGF-b1 induced hyaluronan synthesis | stimulation of involucrin mRNA (involucrin; 6 h): ~3.1 fold | proliferation [4]: Dose dependent inhibition of the proliferation
